Experimental data: patent US11583525B2, “Geranylgeranyltransferase I inhibitor for treatment of a PTEN defective cancer” (H. LEE MOFFITT CANCER CENTER AND RESEARCH INSTITUTE, INC., priority 2017, dated 2023)
Peptide text beside a SMILES is read from it. * marks the point of attachment. Cbz = O=C(OCc1ccccc1)*

Tested on: IP3R3
Assay: IP3R3 levels and FBXL2 binding in HEK293T cells transfected with Flag-tagged FBXL2 constructs
Format: cell-based, human
Description: 24 h post-transfection, cells were treated with MG132 for 3 h before harvesting for immunoprecipitation and immunoblotting as indicated. WCL, whole-cell lysate from untransfected cells. […] After harvesting, cells were lysed, and cell membranes (CM) were isolated and immunoprecipitated with either a normal mouse IgG or an anti-Flag antibody. Subsequently, immunoprecipitates were analysed by immunoblotting as indicated. The results of these experiments (n=2) indicate that FBXL2 is incorporated into a complete SCF ligase that binds its substrate(s) at cellular membranes. […] After harvesting, cells were lysed and cytoplasmic (CYTO) and cell membrane (CM) fractions were isolated and analysed by immunoblotting as indicated. Actin and calnexin are used as markers for cytoplasmic and cell membrane fractions, respectively. This experiment was performed twice. […] 24 h post-transfection, where indicated, cells were treated with MG132 for 3 h before harvesting for immunoprecipitation and immunoblotting. Ned. CUL1, neddylated CUL1. […] The experiment was performed in the presence or absence of MG132 as indicated. Whole-cell lysates were immunoblotted as indicated. The asterisk indicates a non-specific band. This experiment was performed twice. […] P values were calculated by unpaired t-test. Error bars indicate s.e.m. […] Error bars indicate s.e.m. The values represent the ratios between FBXL2 and GAPDH mRNAs. […]

## CC(C)C[C@@H](C=O)NC(=O)[C@H](CC(C)C)NC(=O)[C@H](CC(C)C)NC(=O)OCc1ccccc1 [MG132] (Cbz-Leu-Leu-Leu-aldehyde)
HEK293T cells expressing wild-type FBXL2, MG132
  FBXL2-induced decrease in the levels of IP3R3: this decrease was rescued by MG132 treatment
HEK293T cells, MG132 for 3 h
  difference in IP3R3 binding between FBXL2(ΔF-box) and wild-type FBXL2: this difference was abolished by MG132 treatment
